Paper PMC7269032, “Chiral 4-O-acylterpineol as transdermal permeation enhancers: insights of the enhancement mechanisms of a transdermal enantioselective delivery system for flurbiprofen” (Drug Delivery, 2020)

Test: In vitro permeation experiment of FP drug-in-adhesive patches in two-chamber diffusion cells
Assay type: in vitro ADME, rabbit
Conditions: patch 5% drug (w/w); for ER (Q24h with enhancer/Q24h without enhancer) for R-FP / Tlag of R-FP / Js of R-FP: permeant R-FP; for ER (Q24h with enhancer/Q24h without enhancer) for R-FP / ER (Q24h with enhancer/Q24h without enhancer) for S-FP / ER (Q24h with enhancer/Q24h without enhancer) for SR-FP: enhancer equimolar to 5% 4-TER; for Tlag of R-FP / Js of R-FP / Tlag of S-FP / Js of S-FP / Tlag of SR-FP / Js of SR-FP: enhancer equimolar to 5% 4-TER (control: no enhancer); for Js of R-FP / Js of S-FP / Js of SR-FP: mean ± SD, n = 4; for ER (Q24h with enhancer/Q24h without enhancer) for S-FP / Tlag of S-FP / Js of S-FP: permeant S-FP; for ER (Q24h with enhancer/Q24h without enhancer) for SR-FP / Tlag of SR-FP / Js of SR-FP: permeant SR-FP
From the text: Male, Japanese big-eared rabbits weighting 2.5–3.0 kg were purchased from the animal experimental center of North China University of Science and Technology. The experimental process was in accordance with the ‘Ethical Guide for Laboratory Animal Investigation’ and was approved by the Animal Experimental Center Committee of North China University of Science and Technology. All efforts were made to minimize animal suffering and to limit the number of animals used.
The hair of back skin was removed by clipper and electrical shaver carefully when the rabbits were anesthetized with ether. Full thickness of back skin was excised after the rabbit was sacrificed by injecting air into the ear veins, and the subcutaneous fat tissue was carefully removed using the surgical scissor and scalpel. The integrity of the skin was confirmed by microscopic observation method. The treated rabbit skin was cut into a size of 1.5 cm × 1.5 cm and stored at –80 °C until use. Before use, it needed to be immersed in physiological saline for 20 min to thaw.
Drug-in-adhesive patch (drug loading of 5% by adhesive) was prepared by using solvent evaporation method. An appropriate amount of FP was dissolved in a suitable amount of ethyl acetate, which was later added to the adhesive and mixed thoroughly with a mechanical stirrer. The resulting solution was coated onto release liner (Scotch Pak® 9744, 3M, USA) by using lab coating unit (6025, BLD Instruments Co. Ltd., Guangdong, China). The coated laminate was dried at 50 °C for 15 min. After the solvent had been removed, it was covered with backing laminate (Scotch Pak® 9732, 3M).
Modified two-chamber diffusion cells with an effective diffusion area of 0.95 cm^2 were employed in the in vitro permeation experiment. The cells were kept at 32 °C by the circulated water bath and stirred with magnetic bars at 400 rpm. The dermis side of the skin was attached to one-half of the side-by-side diffusion cells, the FP patch was pressed on the skin with the adhesive side facing the SC, and pH 7.4 PBS was used as the receptor medium. At predetermined time points (2, 4, 6, 8, 10, 12 and 24 h), the receptor solution of 2.0 mL was withdrawn and equal volume PBS was added to maintain a constant volume of receptor solution.
The cumulative amount of each drug permeating per unit area (Q) versus time was plotted. Q24h=(3.5Ci+2.0∑i=1n−1Ci−1)/A
Q was the cumulative skin permeation amount. Ci was the concentration in the receiver compartment at time i, A was the effective diffusion area of diffusion.
The steady-state flux (Js, µg/cm^2/h) was calculated from the slope of linear region of the plot. The lag-time was determined by extrapolating the linear portion of the curve to the abscissa. Js=dQr/Adt
Enhancement ratio (ER) was used to evaluate the activity of the enhancers, which is the ratio of Q24h with enhancer to Q24h without enhancer. ER=Q24h(with enhancer)/Q24h(without enhancer)

Row | SMILES | ER (Q24h with enhancer/Q24h without enhancer) for R-FP | Tlag of R-FP | Js of R-FP | ER (Q24h with enhancer/Q24h without enhancer) for S-FP | Tlag of S-FP | Js of S-FP | ER (Q24h with enhancer/Q24h without enhancer) for SR-FP | Tlag of SR-FP | Js of SR-FP
1 | CCCCCCCCCCCCCC(=O)OC1(C(C)C)CC=C(C)CC1 (stereo not drawn) [d-4-T-C14, d-4-methyl-1-(1-methylethyl)-3-cyclohexen-1-yl tetradecanoate] | 3.19 | 3.98 h | 8.16 ± 0.84 μg/cm^2/h | 3.53 | 2.04 h | 7.75 ± 1.68 μg/cm^2/h | 2.85 | 3.58 h | 18.79 ± 3.81 μg/cm^2/h
2 | CCCCCCC(=O)OC1(C(C)C)CC=C(C)CC1 (stereo not drawn) [d-4-T-C7, d-4-methyl-1-(1-methylethyl)-3-cyclohexen-1-yl heptanoate] | 1.96 | 2.40 h | 4.40 ± 1.42 μg/cm^2/h | 1.69 | 2.91 h | 4.39 ± 0.49 μg/cm^2/h | 2.14 | 3.74 h | 14.46 ± 1.52 μg/cm^2/h
3 | CCCCCCCCCCCCCC(=O)OC1(C(C)C)CC=C(C)CC1 (stereo not drawn) [l-4-T-C14, l-4-methyl-1-(1-methylethyl)-3-cyclohexen-1-yl tetradecanoate] | 2.92 | 3.51 h | 7.62 ± 1.49 μg/cm^2/h | 2.73 | 3.37 h | 6.80 ± 0.50 μg/cm^2/h | 1.92 | 2.45 h | 11.83 ± 6.27 μg/cm^2/h
4 | CCCCCCC(=O)OC1(C(C)C)CC=C(C)CC1 (stereo not drawn) [l-4-T-C7, l-4-methyl-1-(1-methylethyl)-3-cyclohexen-1-yl heptanoate] | 1.38 | 2.11 h | 3.19 ± 0.47 μg/cm^2/h | 1.10 | 4.18 h | 3.00 ± 0.69 μg/cm^2/h | 1.35 | 2.96 h | 6.58 ± 1.41 μg/cm^2/h
